Assay results as given in patent US20100216823A1 (Pfizer Inc., priority 2007, published 2010).

Columns and labels:
Format in all cases: biochemical
PDE7B = target: T1, PDE7B (Homo sapiens, UniProt Q9NP56); assay: PDE7B [3H]-cAMP scintillation proximity assay (SPA) enzyme inhibition; settings: for Ki: full length PDE7B in cell lysate, ~25 nM cAMP, Ki from IC50 by Cheng-Prussof equation; for 1C/7B selectivity: ratio PDE1C Ki / PDE7B Ki
T1 construct: cell lysate containing full length PDE7A, PDE7B and PDE1C enzyme; made in house; host or cells: cell lysate
Method: (§1) The ability of the compounds of formula (I) to inhibit PDE7 and PDE1 may be measured using the following assay protocol.
(§2) PDE7A, PDE7B and PDE1C enzymes catalyse the hydrolysis of 3′,5′-cyclic adenosine monophosphate (cAMP) to the 5′ adenosine monophosphate, 5′AMP. In a multiwell plate, PDE enzyme, [^3H]-cAMP and the test compounds, are incubated at room temperature. The incubation is terminated by addition of commercially available yttrium silicate scintillation proximity assay (SPA) beads containing zinc sulphate. The yttrium silicate beads preferentially bind linear nucleotides, thus the product of the enzyme reaction, [^3H]-5′AMP binds to the bead to produce a light signal, which is detected by a scintillation counter. The amount of signal produced directly correlates with the amount of product formed, and thus the activity of the enzyme. The maximum signal is obtained where enzyme and substrate are incubated alone. The background signal is measured from wells either containing no enzyme, or from wells containing a supra-maximal concentration of a known PDE 7A/7B/1C inhibitor. Each purified batch of enzyme is quality controlled and its Km, Vmax and specific activity determined from kinetic studies before use in compound inhibition studies. The inhibition of the enzyme, by a test compound, is calculated relative to the maximum and background responses.
(§3) The compound of Example 75 of WO 02/074754, 5′-carboxypropoxy-8′-chloro-spiro[cyclohexane-1-4′-(3′,4′-dihydro)quinazolin]-2′(1′H)-one (referred to as compound A hereafter) was used as a standard for PDE7A and PDE7B. The compound of Example 32 of WO 02/074754, 4-(8′-chloro-2′-oxo-2′,3′-dihydro-1′H-spiro[cyclohexane-1,4′-quinazolin]-6′-yl)benzoic acid (referred to as compound B hereafter) was used as a standard for PDE1C.
(§4) The optimisation of this assay has been carried out using cell lysate containing full length PDE7A, PDE7B and PDE1C enzyme. The concentration of the enzyme in this cell lysate sample is unknown, so the specific activity of the cell lysate is used as a measure to ensure that the same activity per well is used despite any batch-to-batch variation of concentration/activity.
(§5) PDE7A/7B/1C stock enzyme was prepared and kept at −20° C. in appropriately sized aliquots to reduce the number of freeze/thaw cycles. […] PDE7A is diluted to 1/8000, PDE7B to 1/10000 and PDE1C to 1/200000.
(§6) The final assay [cAMP] of ˜25 nM is required, so ˜50 nM [^3H]-cAMP was prepared. 9 ml of substrate solution was prepared by mixing 10.8 μl of [^3H]-cAMP (available from Amersham) with 8975 μl of assay buffer.
(§7) 1 μl test compound was transferred into a suitable multi-well assay plate immediately prior to reagent assay addition, 14 μl enzyme solution was then added to the assay plate, followed by 15 μl substrate solution (ie: final assay volume 30 μl, with a final screening compound concentration of 1 μM for PDE7A and PDE7B and 10 μM for PDE1C). The plate was then sealed using a plate sealer and incubated at room temperature for 45 min on the plate shaker.
(§8) 30 μl Yttrium Silicate PDE4 SPA beads were then added, ensuring constant stirring of the beads to give even distribution in the assay plate. The plate was then sealed using a plate sealer and incubated at room temperature for 30 mins on the plate shaker. The beads were then allowed to settle for 30 mins, before spinning the plates for 1 min at 200 g.
(§9) The plates were then read on a suitable radioactive counter, for example NXT-TopCount™ (available from Perkin Elmer) using the relevant protocol (30 second read time per well).
(§10) The data was fitted to a sigmoid curve using a least squares algorithm.
(§11) The IC50 value was converted to a value using the Cheng-Prussof equation: […]

PDE7A = target: T2, PDE7A (Homo sapiens, UniProt Q13946); assay: PDE7A [3H]-cAMP scintillation proximity assay (SPA) enzyme inhibition; settings: for Ki: full length PDE7A in cell lysate, ~25 nM cAMP, Ki from IC50 by Cheng-Prussof equation; for 1C/7A selectivity: ratio PDE1C Ki / PDE7A Ki
T2 construct: cell lysate containing full length PDE7A, PDE7B and PDE1C enzyme; made in house; host or cells: cell lysate
Method: as §1, §2, §3, §4, §5, §6, §7, §8, §9, §10, §11

PDE1C = target: T3, PDE1C (Homo sapiens, UniProt Q14123); assay: PDE1C [3H]-cAMP scintillation proximity assay (SPA) enzyme inhibition; settings: full length PDE1C in cell lysate; 75 nM cAMP; Ki from IC50 by Cheng-Prussof equation
T3 construct: cell lysate containing full length PDE7A, PDE7B and PDE1C enzyme; made in house; host or cells: cell lysate
Method: as §1, §2, §3, §4, §5
The final assay [cAMP]=75 nM therefore the required solution [cAMP]=0.15 μM (1/2 dilution in assay plate)
as §7, §8, §9, §10, §11

T3 sequence (Q14123 whole entry): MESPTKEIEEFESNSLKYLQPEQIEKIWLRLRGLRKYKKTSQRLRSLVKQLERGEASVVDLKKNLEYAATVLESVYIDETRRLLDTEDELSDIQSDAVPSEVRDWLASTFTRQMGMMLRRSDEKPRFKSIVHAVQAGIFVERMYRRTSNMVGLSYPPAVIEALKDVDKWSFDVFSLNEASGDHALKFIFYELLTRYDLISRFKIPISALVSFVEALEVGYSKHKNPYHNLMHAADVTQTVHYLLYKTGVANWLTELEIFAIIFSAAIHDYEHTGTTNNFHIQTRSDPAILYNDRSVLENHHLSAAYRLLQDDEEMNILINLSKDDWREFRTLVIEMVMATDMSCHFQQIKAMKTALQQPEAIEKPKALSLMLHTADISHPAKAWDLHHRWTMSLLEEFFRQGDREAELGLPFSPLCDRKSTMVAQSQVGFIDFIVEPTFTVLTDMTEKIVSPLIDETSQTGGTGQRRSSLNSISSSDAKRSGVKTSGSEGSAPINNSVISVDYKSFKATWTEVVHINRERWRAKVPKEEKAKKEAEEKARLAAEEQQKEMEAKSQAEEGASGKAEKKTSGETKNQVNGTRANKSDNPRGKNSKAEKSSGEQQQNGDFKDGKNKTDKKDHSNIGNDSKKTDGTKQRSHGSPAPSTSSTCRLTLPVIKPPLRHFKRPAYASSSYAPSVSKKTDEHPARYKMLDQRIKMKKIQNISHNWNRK
T2 sequence (Q13946 whole entry): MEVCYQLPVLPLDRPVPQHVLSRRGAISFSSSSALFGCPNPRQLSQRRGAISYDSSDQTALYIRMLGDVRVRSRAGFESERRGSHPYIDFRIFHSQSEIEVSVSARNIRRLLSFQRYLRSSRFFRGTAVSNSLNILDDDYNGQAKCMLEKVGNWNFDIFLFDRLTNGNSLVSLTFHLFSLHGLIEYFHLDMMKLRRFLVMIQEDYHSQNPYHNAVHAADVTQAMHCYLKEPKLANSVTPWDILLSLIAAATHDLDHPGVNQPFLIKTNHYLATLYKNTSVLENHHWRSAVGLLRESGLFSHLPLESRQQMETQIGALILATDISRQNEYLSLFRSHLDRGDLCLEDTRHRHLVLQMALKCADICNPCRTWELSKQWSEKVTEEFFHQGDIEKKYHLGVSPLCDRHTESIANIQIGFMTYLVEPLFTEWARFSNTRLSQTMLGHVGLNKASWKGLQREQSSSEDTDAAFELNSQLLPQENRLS
T1 sequence (Q9NP56 whole entry): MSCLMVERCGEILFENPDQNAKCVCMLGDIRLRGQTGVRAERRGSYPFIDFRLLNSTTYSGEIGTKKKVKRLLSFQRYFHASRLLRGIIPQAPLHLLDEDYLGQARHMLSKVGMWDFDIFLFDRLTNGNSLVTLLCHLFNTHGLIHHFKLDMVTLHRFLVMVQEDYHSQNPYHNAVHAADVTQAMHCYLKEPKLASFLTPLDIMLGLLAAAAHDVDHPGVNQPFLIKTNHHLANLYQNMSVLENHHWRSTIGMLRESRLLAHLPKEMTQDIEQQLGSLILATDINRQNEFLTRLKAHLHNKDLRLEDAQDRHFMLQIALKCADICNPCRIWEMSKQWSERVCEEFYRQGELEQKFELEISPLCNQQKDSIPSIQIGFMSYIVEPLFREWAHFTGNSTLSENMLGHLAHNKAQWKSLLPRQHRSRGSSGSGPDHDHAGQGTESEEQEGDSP

SMILES	Ki (PDE7B)	1C/7B selectivity (PDE7B)	Ki (PDE7A)	1C/7A selectivity (PDE7A)	Ki (PDE1C)
O=C1Nc2c(Cl)cc(-c3ccc(C(=O)O)cc3)cc2C2(CCCCC2)N1 [Compound B, 4-(8′-chloro-2′-oxo-2′,3′-dihydro-1′H-spiro[cyclohexane-1,4′-quinazolin]-6′-yl)benzoic acid, reference compound]	39 nM	0.04	1.5 nM	0.97	1.4 nM
O=C1Nc2c(Cl)ccc(OCc3ccc(C(=O)O)o3)c2C2(CCCCC2)N1 [Compound C, 5-{[(8′-chloro-2′-oxo-2′,3′-dihydro-1′H-spiro[cyclohexane-1,4′-quinazolin]-5′-yl)oxy]methyl}-2-furoic acid, reference compound]	33 nM	9.2	6.7 nM	45	305 nM
O=C1Nc2c(Cl)ccc(-c3ccc(F)c(C(=O)O)c3)c2C2(CCCCC2)N1 [Example 1, 5-[(8′-chloro-2′-oxo-2′,3′-dihydro-1′H-spiro[cyclohexane-1,4′-quinazolin]-5′-yl)]-2-fluorobenzoic acid]	32 nM	>175	3.2 nM	>1750	> 5600 nM
O=C1Nc2c(Cl)ccc(-c3cccc(C(=O)O)c3)c2C2(CCCCC2)N1 [Example 2]	12 nM	>477	3.1 nM	>1810	> 5630 nM
O=C1Nc2c(Cl)ccc(-c3ccc(C(=O)O)c(F)c3)c2C2(CCCCC2)N1 [Example 3, 5-[(8′-chloro-2′-oxo-2′,3′-dihydro-1′H-spiro[cyclohexane-1,4′-quinazolin]-4′-yl)]-2-fluorobenzoic acid]	101 nM	24	11 nM	218	2430 nM
O=C1Nc2c(Cl)ccc(-c3ccc(F)c(-c4nn[nH]n4)c3)c2C2(CCCCC2)N1 [Example 4]	45 nM	35	7.5 nM	207	1560 nM
O=C(O)COc1cccc(-c2ccc(Cl)c3c2C2(CCCCC2)NC(=O)N3)c1 [Example 5, [3-(8′-chloro-2′-oxo-2′,3′-dihydro-1′H-spiro[cyclohexane-1,4′-quinazolin]-5′-yl)phenoxy]acetic acid]	51 nM	>113	4.5 nM	>1260	> 5730 nM
O=C1Nc2c(Cl)ccc(Oc3c(F)cccc3C(=O)O)c2C2(CCCCC2)N1 [Example 6, 2-{(8′-chloro-2′-oxo-2′,3′-dihydro-1′H-spiro[cyclohexane-1,4′-quinazolin]-5′-yl)oxy}-3-fluorobenzoic acid]	3.4 nM	172	1.7 nM	336	584 nM
O=C1Nc2c(Cl)ccc(Oc3c(F)cccc3C(=O)O)c2C2(CCCC2)N1 [Example 7, 2-{(8′-chloro-2′-oxo-2′,3′-dihydro-1′H-spiro[cyclopentane-1,4′-quinazolin]-5′-oxy}-3-fluorobenzoic acid]	21 nM	107	11 nM	201	2260 nM
O=C1Nc2c(Cl)ccc(Oc3c(Cl)cccc3C(=O)O)c2C2(CCCCC2)N1 [Example 8, 3-chloro-2-{(8′-chloro-2′-oxo-2′,3′-dihydro-1′H-spiro[cyclohexane-1,4′-quinazolin]-5′-yl)oxy}benzoic acid]	9.4 nM	192	4.8 nM	380	1810 nM
O=C1Nc2c(F)ccc(Oc3c(Cl)cccc3C(=O)O)c2C2(CCCCC2)N1 [Example 9, 3-chloro-2-{(8′-fluoro-2′-oxo-2′,3′-dihydro-1′H-spiro[cyclohexane-1,4′-quinazolin]-5′-yl)oxy}benzoic acid]	41 nM	>92	32 nM	>116	> 3750 nM
O=C1Nc2c(Cl)ccc(Oc3c(F)cccc3-c3nn[nH]n3)c2C2(CCCCC2)N1 [Example 10, 8′-chloro-5′-[2-fluoro-6-(2H-tetrazol-5-yl)phenoxy]-1′H-spiro[cyclohexane-1,4′-quinazolin]-2′(3′H)-one]	0.4 nM	186	0.1 nM	743	73 nM
O=C1Nc2c(Cl)ccc(Oc3ccc(F)cc3-c3nn[nH]n3)c2C2(CCCCC2)N1 [Example 11, 8′-chloro-5′-[4-fluoro-2-(1H-tetrazol-5-yl)phenoxy]-1′H-spiro[cyclohexane-1,4′-quinazolin]-2′(3′H)-one]	1 nM	70	< 0.2 nM	>307	70 nM
O=C1Nc2c(F)ccc(Oc3c(F)cccc3-c3nn[nH]n3)c2C2(CCCCC2)N1 [Example 12]	0.7 nM	123	0.3 nM	301	89 nM
O=C1Nc2c(Cl)ccc(Oc3ccc(F)cc3-c3nnn[nH]3)c2C2(CCCC2)N1 [Example 13, 8′-chloro-5′-[4-fluoro-2-(1H-tetrazol-5-yl)phenoxy]-1′H-spiro[cyclopentane-1,4′-quinazolin]-2′(3′H)-one]	7.2 nM	119	1.7 nM	523	862 nM
O=C1Nc2c(Cl)ccc(Oc3c(F)cccc3-c3nn[nH]n3)c2C2(CCCC2)N1 [Example 14, 8′-chloro-5′-[6-fluoro-2-(1H-tetrazol-5-yl)phenoxy]-1′H-spiro[cyclopentane-1,4′-quinazolin]-2′(3′H)-one]	4.4 nM	165	2.4 nM	301	723 nM
O=C1Nc2c(Cl)ccc(Oc3c(Cl)cccc3-c3nn[nH]n3)c2C2(CCCC2)N1 [Example 15, 8′-chloro-5′-[6-chloro-2-(1H-tetrazol-5-yl)phenoxy]-1′H-spiro[cyclopentane-1,4′-quinazolin]-2′(3′H)-one]	6.6 nM	164	5 nM	217	1080 nM
O=C1Nc2c(Cl)ccc(Oc3ccccc3-c3nn[nH]n3)c2C2(CCCC2)N1 [Example 16, 8′-chloro-5′-[2-(1H-tetrazol-5-yl)phenoxy]-1′H-spiro[cyclopentane-1,4′-quinazolin]-2′(3′H)-one]	9.8 nM	79	2.3 nM	345	778 nM
O=C(O)Cc1cccc(F)c1Oc1ccc(Cl)c2c1C1(CCCCC1)NC(=O)N2 [Example 22, {2-[(8′-chloro-2′-oxo-2′,3′-dihydro-1′H-spiro[cyclohexane-1,4′-quinazolin]-5′-yl)oxy]-3-fluorophenyl}acetic acid]	–	–	< 0.05 nM	>282	–
